Results published in patent publication US20240383869A1, “ARYLACETYL INHIBITORS OF TG2 AND USES THEREOF” (UNIVERSITY OF OTTAWA, priority 2021, published 2024).
≈ marks a conversion by molar mass, not a printed value.

Legend:
[1] = Kinetic solubility; format: physicochemical; settings: kinetic from dmso stock
[2] = system: P-gp (MDR1); experiment: MDCK-MDR1 permeability; format: in vitro ADME; settings: dog, MDCK-MDR1
[3] = target: T1, hTG2 (Homo sapiens, UniProt P21980); settings: shown previously; cited from earlier work
T1 sequence (P21980 1-687): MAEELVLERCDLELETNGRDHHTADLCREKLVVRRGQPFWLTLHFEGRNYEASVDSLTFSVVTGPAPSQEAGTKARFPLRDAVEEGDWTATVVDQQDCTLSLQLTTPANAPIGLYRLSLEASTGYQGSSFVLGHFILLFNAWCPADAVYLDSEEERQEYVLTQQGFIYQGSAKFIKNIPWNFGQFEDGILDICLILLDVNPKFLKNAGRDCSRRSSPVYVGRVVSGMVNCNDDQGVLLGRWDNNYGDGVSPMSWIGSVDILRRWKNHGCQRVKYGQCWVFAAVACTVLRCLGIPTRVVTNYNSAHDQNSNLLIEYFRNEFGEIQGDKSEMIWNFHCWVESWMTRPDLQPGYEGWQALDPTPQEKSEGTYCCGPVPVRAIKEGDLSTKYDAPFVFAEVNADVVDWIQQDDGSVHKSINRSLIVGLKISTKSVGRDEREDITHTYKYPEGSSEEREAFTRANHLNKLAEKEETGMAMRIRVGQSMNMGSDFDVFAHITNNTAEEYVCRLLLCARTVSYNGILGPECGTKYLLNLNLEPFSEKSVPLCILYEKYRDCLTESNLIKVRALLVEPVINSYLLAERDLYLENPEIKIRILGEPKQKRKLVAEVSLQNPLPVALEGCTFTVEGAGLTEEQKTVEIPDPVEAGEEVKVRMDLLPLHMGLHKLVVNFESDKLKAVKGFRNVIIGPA

[4] = target: T1, hTG2; experiment: In vitro GTP binding assay (BODIPY GTP-γ-S fluorescence); settings: inhibitor 2×KI, 30 minutes at 25° C.; 3 μM BODIPY GTP-γ-S
Description: Previously we proposed a mechanism of action for the NC9, VA4 and AA9 inhibitors based on their ability to react covalently with the open conformation of TG2, locking the enzyme in that conformation and thereby abolishing the enzyme's ability to bind GTP and act as a G-protein. […] We used the same in vitro GTP binding assay to measure the ability of representative phenylacetyl inhibitors 67 and 72 to abolish GTP binding, as follows:
In vitro GTP binding assay. GTP binding was measured using a method similar to that reported previously (McEwen, D. P. et al., “Fluorescent BODIPY-GTP analogs: Real-time measurement of nucleotide binding to G proteins.” Anal. Biochem. 2001, 291 (1), 109-117). […] The buffer was then exchanged to 100 mM MOPS (pH=7.0), 1 mM EGTA and 5 mM MgCl2 to remove calcium via dialysis using a 10-kDa molecular weight cut off membrane. The fluorescent GTP analog was added to give a final concentration of 3.0 μM and fluorescence was measured on a microplate reader after 10 minutes of incubation (Ex/Em: 490/520 nm).

C=CC(=O)NCCCC[C@H](NC(=O)Cc1ccccc1C)C(=O)N1CCN(C(=O)c2cccc3ccccc23)CC1 [Inhibitor 74, (S)-N-(6-(4-(1-naphthoyl)piperazin-1-yl)-5-(2-(2-methylphenyl)acetamido)-6-oxohexyl)acrylamide]
solubility kinetic [1]: 39 µM (≈ 21.6 µg/mL)
efflux ratio [2]: > 50

C=CC(=O)NCCCC[C@H](NC(=O)OCc1ccccc1)C(=O)N1CCN(C(=O)c2cccc3ccccc23)CC1 [AA9, reference compound]
suppression of TG2 binding of GTP-γ-S-FL BODIPY [3]: suppress the ability of TG2 to bind GTP-γ-S-FL BODIPY

C=CC(=O)NCCCC[C@H](NC(=O)Cc1ccccc1F)C(=O)N1CCN(C(=O)c2cccc3ccccc23)CC1 [Inhibitor 72, (S)-N-(6-(4-(1-naphthoyl)piperazin-1-yl)-5-(2-(2-fluorophenyl)acetamido)-6-oxohexyl)acrylamide]
inhibition of GTP binding of hTG2 [4]: abolished the GTP binding ability
